The subject of this data set is SH-SY5Y human neuroblastoma cells. The experiment in a line: cells. It is filed as cell-based. The protocol:
Toxicity assays in human neuroblastoma cells. SH-SY5Y human neuroblastoma cells were cultured in DMEM/Ham's F-12 (1:1) media, supplemented with 10% FBS, penicillin (100 IU/ml), streptomycin (100 μg/ml), and L-glutamine (2 mM); the cell culture medium was replaced every two days. Cultures were maintained at 37° C. in 95% air-5% CO2 in a humidified incubator. A standard curve established the linear range for the assay of approximately 1000-7000 cells/well for a 96 well plate. All data reported were within this range. MTS assay concentration-response curves were performed as follows: 1800 cells/well were plated in 96 well plates. After 30 h, media was changed to include no toxicant (control) or toxicant at varying concentrations. The cells were then exposed for 48 h, the media was removed, and 100 μl minimum essential medium without phenol red and 20 μl MTS reagent were added. Cells were incubated, and 2 h later, plates were measured at 490 nm on an ELx 808 microplate reader (Bio-Tek Instruments, Winooski, Vt.). EC50 values were determined via nonlinear regression using Prism software (GraphPad, San Diego, Calif.).
Cytotoxicity tests in human neuroblastoma cells. The 3-(4,5-dimethylthiazol-2-yl)-5-(3-carboxymethoxyphenyl)-2-(4-sulfophenyl)-2H-tetrazolium (MTS) assay is a quantitative colorimetric assay for measurement of cellular proliferation, cytotoxicity and viability. MTS is converted to a formazan product only in living cells. MTS is similar to 3-(4,5-dimethylthiazol-2-yl)-2,5-diphenyltetrazolium bromide (MTT), which is widely used in cytotoxicity assays. The difference is that the formazan product for the MTS reagent is soluble in media while the MTT reagent is not.
To study the cytotoxicity of c-di-GMP in SH-SY5Y human neuroblastoma cells, increasing concentrations (0.0001-1000 μM) were added to the culture medium and cell viability was assessed by the MTS assay. […] Up to 100 μM, there was no effect on cell viability; at greater concentrations, a sharp decline in cell viability was observed.

As for `Nc1nc(=O)c2ncn([C@@H]3OC4COP(=O)(O)O[C@H]5[C@@H](O)[C@H](n6cnc7c(=O)nc(N)[nH]c76)O[C@@H]5COP(=O)(O)OC4C3O)c2[nH]1` (stereo partly drawn) [c-di-GMP, Bis(3′-->5′)-cyclic diguanylic acid], the “cytotoxicity on human neuroblastoma cells” value is recorded as “no cytotoxicity”. In addition, under “Homo sapiens, SH-SY5Y cells, 48 hr exposure, MTS assay, read-out: EC50 for decrease of cell viability”, the concentration giving a half-maximal response (EC50) came out at 350 µM. Further, under “human, 48 h”, the “concentration with no effect on cell viability” value is reported as “Up to 100 μM”.

These data come from patent US7709458B2, “Method for inhibiting cancer cell proliferation or increasing cancer cell apoptosis” (priority 2004, dated 2010).
